The source of these data is article PMC5736936, “Xylopine Induces Oxidative Stress and Causes G2/M Phase Arrest, Triggering Caspase-Mediated Apoptosis by p53-Independent Pathway in HCT116 Cells” (Oxidative Medicine and Cellular Longevity, 2017).

Where two headings read alike, the source gives them in different places.

Test [1] concerns BAD KO SV40 MEF (BAD gene knockout immortalized mouse embryonic fibroblast). As to the kind of experiment: Cytotoxic activity in BAD gene knockout fibroblasts. The class given is cell-based. To be noted: BAD KO SV40 MEF cell line. From the text:
(§1) MCF7 (human breast carcinoma), HCT116 (human colon carcinoma), HepG2 (human hepatocellular carcinoma), SCC-9 (human oral squamous cell carcinoma), HSC-3 (human oral squamous cell carcinoma), HL-60 (human promyelocytic leukemia), K-562 (human chronic myelogenous leukemia), B16-F10 (murine melanoma), MRC-5 (human lung fibroblast), WT SV40 MEF (wild-type immortalized mouse embryonic fibroblast), and BAD KO SV40 MEF (BAD gene knockout immortalized mouse embryonic fibroblast) cell lines were obtained from the American Type Culture Collection (ATCC, Manassas, VA, USA). Cells were cultured in complete medium with appropriate supplements as recommended by ATCC. All cell lines were tested for mycoplasma using the Mycoplasma Stain Kit (Sigma-Aldrich) to validate the use of cells free from contamination. Primary cell culture of peripheral blood mononuclear cells (PBMC) was obtained by standard Ficoll density protocol. The Research Ethics Committee of the Oswaldo Cruz Foundation (Salvador, BA, Brazil) approved the experimental protocol (number 031019/2013). Cell viability was examined using trypan blue exclusion assay for all experiments.
(§2) Cell viability was quantified using the alamarBlue assay according to Ahmed et al.. Cells were inserted in 96-well plates for all experiments (7 × 10^4 cells/mL for adherent cells or 3 × 10^5 cells/mL for suspended cells in 100 μL of medium). After 24 h, xylopine was dissolved in dimethyl sulfoxide (DMSO) and added to each well and incubated for 72 h. […] Four (for cell lines) or 24 h (for PBMCs) before the end of incubation, 20 μL of a stock solution (0.312 mg/mL) of the alamarBlue (resazurin, Sigma-Aldrich Co., Saint Louis, MO, USA) was added to each well. Absorbance at 570 nm and 600 nm was measured using the SpectraMax 190 Microplate Reader (Molecular Devices, Sunnyvale, CA, USA), and the drug effect was quantified as the percentage of control absorbance.

In test [2] the test system is WT SV40 MEF (wild-type immortalized mouse embryonic fibroblast). As to the kind of experiment: Cytotoxic activity in wild-type fibroblasts. The class given is cell-based. To be noted: WT SV40 MEF cell line.
Text: as §1, §2

In test [3] the test system is B16-F10 (murine melanoma). As to the kind of experiment: Cytotoxic activity, alamarBlue assay, 72 h. It is filed as cell-based. Conditions: for IC50: B16-F10, alamarBlue, 72 h.
Text: as §1, §2
A general note: The colour change of resazurin is a common sign of viable cells or microbes.

Test [4] concerns HCT116 (human colon carcinoma). As to the kind of experiment: Cytotoxic activity, alamarBlue assay, 72 h. To be noted: for IC50: HCT116, alamarBlue, 72 h. The class given is cell-based.
Text: as §1, §2

Test [5] concerns HL-60 (human promyelocytic leukemia). The test is described as follows: Cytotoxic activity, alamarBlue assay, 72 h. It is filed as cell-based. Conditions: for IC50: HL-60, alamarBlue, 72 h.
Text: as §1, §2

Test [6] has as its system HSC3 (human oral squamous cell carcinoma). The test is described as follows: Cytotoxic activity, alamarBlue assay, 72 h. To be noted: for IC50: HSC3, alamarBlue, 72 h. It is filed as cell-based.
Text: as §1, §2

For test [7], the system named is HepG2 (human hepatocellular carcinoma). The test is described as follows: Cytotoxic activity, alamarBlue assay, 72 h. It is filed as cell-based. Conditions: for IC50: HepG2, alamarBlue, 72 h.
Text: as §1, §2

The subject of test [8] is K562 (human chronic myelogenous leukemia). As to the kind of experiment: Cytotoxic activity, alamarBlue assay, 72 h. Conditions: for IC50: K562, alamarBlue, 72 h. The class given is cell-based.
Text: as §1, §2

In test [9] the test system is MCF7 (human breast carcinoma). As to the kind of experiment: Cytotoxic activity, alamarBlue assay, 72 h. It is filed as cell-based. To be noted: for IC50: MCF7, alamarBlue, 72 h.
Text: as §1, §2

In test [10] the test system is SCC9 (human oral squamous cell carcinoma). As to the kind of experiment: Cytotoxic activity, alamarBlue assay, 72 h. It is filed as cell-based.
Text: as §1, §2

For test [11], the system named is MRC5 (human lung fibroblast). The test is described as follows: Cytotoxic activity, alamarBlue assay, 72 h (noncancer cells). The class given is cell-based.
Text: as §1, §2

The subject of test [12] is PBMC (human peripheral blood mononuclear cells). Described as above. It is filed as cell-based.
Text: as §1, §2

Test [13] relates to cancer multicellular spheroids formed from HCT116 cells. The test is described as follows: 3D multicellular spheroids culture, alamarBlue assay, 72 h. It is filed as cell-based, human. To be noted: 3D spheroids of HCT116, alamarBlue, 72 h. Here is the method: HCT116 cells were cultivated in three-dimensional (3D) multicellular spheroids. Briefly, 100 μL of a solution of cells (0.5 × 10^6 cells/mL) was inserted in 96-well plates with a cell-repellent surface (Greiner Bio-One, Kremsmünster, Austria) and cultured in complete medium plus 3% Matrigel (BD Biosciences, San Jose, CA, USA). Spheroids with stable structures had formed after three days. Then, the spheroids were exposed to a range of drug concentrations for 72 h, after which the cell viability was quantified by alamarBlue assay as described above.

In test [14] the test system is HCT116 cells. The test is described as follows: Cell viability by trypan blue exclusion assay. The class given is cell-based, human. To be noted: HCT116, trypan blue, DOX 1 μM, OXA 2.5 μM, 24 and 48 h.
Text: as §1

For test [15], the system named is HCT116 cells. It is filed as cell-based, human. To be noted: for cell cycle block: OXA 2.5 μM. The procedure:
Cells were harvested in a permeabilization solution containing 0.1% Triton X-100 (Sigma Chemical Co., St Louis, MO, USA), 2 μg/mL propidium iodide (Sigma Chemical Co.), 0.1% sodium citrate, and 100 μg/mL RNAse (Sigma Chemical Co.) and incubated in the dark for 15 min at room temperature. Finally, cell fluorescence was measured by flow cytometry on a BD LSRFortessa cytometer using the BD FACSDiva software (BD Biosciences) and FlowJo software 10 (FlowJo, LCC, Ashland, OR, USA).

In test [16] the test system is calf thymus DNA (ctDNA). The test is described as follows: DNA intercalation assay (ethidium bromide displacement). The class given is binding. Conditions: doxorubicin 10 μM, data not shown. The procedure: DNA intercalation was assessed by examining the ability of xylopine to displace ethidium bromide from calf thymus DNA (ctDNA, Sigma-Aldrich Co.). The assay was conducted in 96-well plates and contained 15 μg/mL ctDNA, 1.5 μM ethidium bromide, and 10 or 20 μM xylopine in 100 μL saline solution. […] Fluorescence was measured using excitation and emission wavelengths of 320 and 600 nm, respectively.

The subject of test [17] is HCT116 cells. The test is described as follows: Morphological analysis (May-Grünwald-Giemsa). To be noted: 24 and 48 h, DOX 1 μM, OXA 2.5 μM. It is filed as cell-based, human. The procedure:
To evaluate alterations in morphology, cells were cultured under coverslip and stained with May-Grünwald-Giemsa. Morphological changes were examined by light microscopy using Image-Pro software.

[18] abbreviates: HCT116, DOX 1 μM, 24 h incubation.
Setting [19] is: HCT116, DOX 1 μM, 48 h incubation.
The mark [20] stands for this setting: HCT116, OXA 2.5 μM, 24 h incubation.
The mark [21] stands for this setting: HCT116, OXA 2.5 μM, 48 h incubation.

By IC50 is commonly meant the concentration that inhibits the measured activity by half. `O=c1[nH]cc(F)c(=O)[nH]1` [5-FU, 5-fluorouracil]: the IC50 was 7.3 µM in test [1] and 1.7 µM in test [2].

For `COc1cccc2c1C(=O)c1c(O)c3c(c(O)c1C2=O)C[C@@](O)(C(=O)CO)C[C@@H]3O[C@H]1C[C@H](N)[C@H](O)[C@H](C)O1` [DOX, doxorubicin], the Selectivity index worked out at 50 in [3] (IC50(MRC5)/IC50(B16-F10)); 173.3 in test [3] (IC50(PBMC)/IC50(B16-F10)); 15 in [4] (IC50(MRC5)/IC50(HCT116)); 52 in test [4] (IC50(PBMC)/IC50(HCT116)); 5 in test [5] (IC50(MRC5)/IC50(HL-60)); 17.3 in test [5] (IC50(PBMC)/IC50(HL-60)). Also, the Selectivity index in [6] (IC50(MRC5)/IC50(HSC-3)) worked out at 5; in test [6] (IC50(PBMC)/IC50(HSC-3)), 17.3; in test [7] (IC50(MRC5)/IC50(HepG2)) it was 15; in [7] (IC50(PBMC)/IC50(HepG2)), 52; in test [8] (IC50(MRC5)/IC50(K-562)), 5; in test [8] (IC50(PBMC)/IC50(K-562)), 17.3. The Selectivity index was 1.4 in test [9] (IC50(MRC5)/IC50(MCF7)), 4.7 in test [9] (IC50(PBMC)/IC50(MCF7)) and 3 in test [10] (IC50(MRC5)/IC50(SCC-9)). Also, the IC50 was 0.03 µM in test [3] (Mus musculus); 0.1 µM in test [4] (Homo sapiens, HCT-116); 0.3 µM in [5] (Homo sapiens); 0.3 µM in test [6] (Homo sapiens, HSC-3); 0.1 µM in [7] (Homo sapiens); 0.3 µM in test [8] (Homo sapiens). Further, the IC50 in [9] (Homo sapiens) stood at 1.1 µM; in [10] (Homo sapiens, SCC-9, SCC9, alamarBlue, 72 h), 0.5 µM; in test [11] (Homo sapiens), 1.5 µM; in [12] (Homo sapiens), 5.2 µM; in test [1], 0.4 µM; in test [2], 0.03 µM. This molecule showed an IC50 in test [13] (Homo sapiens, HCT-116) of 4.5 µM. For the same molecule, the “number of viable cells” value in [14] is “reduced the number of viable cells”. In addition, the “DNA content (%) G0/G1” value in test [15] (setting [18]) is recorded as 28.0 ± 6.3%; in [15] (setting [19]), 22.5 ± 4.0^∗ %. The “DNA content (%) G2/M” value in test [15] (setting [18]) is listed as 44.1 ± 3.4^∗ %; in test [15] (setting [19]) it was 44.2 ± 4.4^∗ %. Besides, the “DNA content (%) S” value was 10.0 ± 2.5% in test [15] (setting [18]) and 14.9 ± 2.5% in test [15] (setting [19]). Further, the figures for the “DNA content (%) Sub-G0/G1” value in test [15] (setting [18]) and in [15] (setting [19]) were 9.7 ± 2.5% and 18.3 ± 2.5%, respectively. Further, the cell cycle block entry in test [15] (HCT116, DOX 1 μM) is reported as “caused cell cycle block at the phase G2/M”. In addition, the “displacement of ethidium bromide from ctDNA (fluorescence intensity)” value in test [16] is given as “significantly reduced the fluorescence intensity”. Also, the cell morphology result in test [17] was “cell shrinkage, chromatin condensation, and nuclear fragmentation”.

For the molecule `O=C1[O][Pt]2([NH][C@@H]3CCCC[C@H]3[NH]2)[O]C1=O` [OXA, oxaliplatin, reference compound], the IC50 in [3] came to 0.1 µM; in test [4], 4.1 µM; in [5] it was 0.4 µM; in test [6], 3.3 µM; in test [7] it was 1 µM; in test [8] it was 0.9 µM. Further, the IC50 was 5.9 µM in [9], 1.5 µM in test [11], 14.9 µM in test [12] and 6 µM in test [13]. In addition, in test [14], the “number of viable cells” value was “reduced the number of viable cells”. Also, in test [15] (HCT116, DOX 1 μM), the cell cycle block result is given as “caused cell cycle block at the phase G2/M”. Also, the “DNA content (%) G0/G1” value in test [15] (setting [20]) is reported as 32.4 ± 3.7%; in [15] (setting [21]) it was 36.2 ± 2.6%. Moreover, the “DNA content (%) G2/M” value in test [15] (setting [20]) came to 39.9 ± 1.5%; in [15] (setting [21]) it was 32.2 ± 4.4%. The “DNA content (%) S” value in test [15] (setting [20]) is on record as 13.5 ± 3.1%; in test [15] (setting [21]), 7.6 ± 0.4%. The “DNA content (%) Sub-G0/G1” value in test [15] (setting [20]) was 8.8 ± 3.5%; in [15] (setting [21]) it was 17.7 ± 1.9%. In addition, in test [17], the cell morphology result was “cell shrinkage, chromatin condensation, and nuclear fragmentation”.
